{"source": "patent EP4682145A1", "about": "“BENZOHETEROCYCLIC COMPOUND, AND PREPARATION METHOD THEREFOR AND USE THEREOF” (Cascade Pharmaceuticals, Inc., priority 2023, dated 2024)"}
{"molecular_target": "T1, human FFAR1 (GPR40) (Homo sapiens, UniProt O14842)", "T1 construct": "Flag; expressed in transfected cells; host or cells: HEK293T", "T1 sequence (O14842 whole entry)": "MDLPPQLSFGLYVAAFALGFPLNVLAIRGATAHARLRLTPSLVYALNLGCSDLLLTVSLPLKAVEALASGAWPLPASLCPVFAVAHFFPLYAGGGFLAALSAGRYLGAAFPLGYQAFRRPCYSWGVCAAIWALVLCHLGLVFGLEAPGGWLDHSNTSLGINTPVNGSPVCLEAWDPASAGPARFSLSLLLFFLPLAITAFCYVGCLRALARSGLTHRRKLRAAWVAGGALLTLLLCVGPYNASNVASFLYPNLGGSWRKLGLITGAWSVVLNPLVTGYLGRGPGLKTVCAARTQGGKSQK", "assay": "NFAT-RE-based reporter gene activity assay (Dual-Glo luciferase) for GPR40 agonistic activity in co-transfected HEK293T cells", "type": "cell-based", "settings": "4-hour treatment", "outline": "(§1)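 Agonism read as NFAT-RE-driven firefly luciferase over Renilla control (Dual-Glo) after 4 h compound exposure, top concentration 1 µM, 10 half-log steps.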", "units": {"EC50": "nM"}}
{"smiles": "COc1cccc(N2CCC(c3oc4cc([C@@H](CC(=O)O)C5CC5)ccc4c3C(=O)Nc3cc(C(F)(F)F)ccc3Cl)CC2)c1", "note": "[Compound 275]", "EC50": "10 to 100"}
{"smiles": "COc1cccc(N2CCC(c3oc4cc([C@@H](CC(=O)O)C5CC5)ccc4c3C(=O)Nc3cc([N+](=O)[O-])ccc3Cl)CC2)c1", "note": "[Compound 276]", "EC50": "10 to 100"}
{"smiles": "COc1cccc(N2CCC(c3oc4cc([C@@H](CC(=O)O)C5CC5)ccc4c3C(=O)Nc3cc(OC(F)(F)F)ccc3Cl)CC2)c1", "note": "[Compound 277]", "EC50": "> 500"}
{"smiles": "CCc1ccc(Cl)c(NC(=O)c2c(C3CCN(c4cccc(OC)c4)CC3)oc3cc([C@@H](CC(=O)O)C4CC4)ccc23)c1", "note": "[Compound 278]", "EC50": "< 10"}
{"smiles": "COc1cccc(N2CCC(c3oc4cc([C@@H](CC(=O)O)C5CC5)ccc4c3C(=O)Nc3cc(C4CC4)ccc3Cl)CC2)c1", "note": "[Compound 279]", "EC50": "> 500"}
{"smiles": "COc1cccc(N2CCC(c3oc4cc([C@@H](CC(=O)O)C5CC5)ccc4c3C(=O)Nc3cc(-c4ccccc4)ccc3Cl)CC2)c1", "note": "[Compound 280]", "EC50": "100 to 500"}
{"smiles": "COc1cccc(N2CCC(c3oc4cc([C@@H](CC(=O)O)C5CC5)ccc4c3C(=O)N(C)c3cc(C(F)(F)F)ccc3Cl)CC2)c1", "note": "[Compound 281]", "EC50": "100 to 500"}
{"smiles": "COc1cccc(N2CCC(c3oc4cc([C@@H](CC(=O)O)C5CC5)ccc4c3C(=O)Nc3cc(C#N)ccc3Cl)CC2)c1", "note": "[Compound 282]", "EC50": "10 to 100"}
{"smiles": "COc1cccc(N2CCC(c3oc4cc([C@@H](CC(=O)O)C5CC5)ccc4c3C(=O)Nc3cc(C(C)=O)ccc3Cl)CC2)c1", "note": "[Compound 283]", "EC50": "10 to 100"}
{"smiles": "COc1cccc(N2CCC(c3oc4cc([C@@H](CC(=O)O)C5CC5)ccc4c3C(=O)Nc3cc(N4CCCCC4)ccc3Cl)CC2)c1", "note": "[Compound 284]", "EC50": "≤ 10"}
{"smiles": "COc1cccc(N2CCC(c3oc4cc([C@@H](CC(=O)O)C5CC5)ccc4c3C(=O)Nc3cc(N4CCOCC4)ccc3Cl)CC2)c1", "note": "[Compound 285]", "EC50": "≤ 10"}
{"smiles": "COc1cccc(N2CCC(c3oc4cc([C@@H](CC(=O)O)C5CC5)ccc4c3C(=O)Nc3cc(NC(C)=O)ccc3Cl)CC2)c1", "note": "[Compound 286]", "EC50": "100 to 500"}
{"smiles": "COc1cccc(N2CCC(c3oc4cc(C(CC(=O)O)C5CC5)ccc4c3C(=O)Nc3c(F)cc(F)cc3F)CC2)c1", "note": "(stereo not shown) [Compound 288]", "EC50": "100 to 500"}
{"smiles": "COc1cccc(N2CCC(c3oc4cc(C(CC(=O)O)C5CC5)ccc4c3C(=O)Nc3nccs3)CC2)c1", "note": "(stereo not shown) [Compound 290]", "EC50": "100 to 500"}
{"smiles": "COc1cccc(N2CCC(c3oc4cc(C(CC(=O)O)C5CC5)ccc4c3C(=O)Nc3ncns3)CC2)c1", "note": "(stereo not shown) [Compound 293]", "EC50": "100 to 500"}
{"smiles": "COc1cccc(N2CCC(c3oc4cc(C(CC(=O)O)C5CC5)ccc4c3C(=O)Nc3noc4ccccc34)CC2)c1", "note": "(stereo not shown) [Compound 296]", "EC50": "100 to 500"}
{"smiles": "COc1cccc(N2CCC(c3oc4cc(C(CC(=O)O)C5CC5)ccc4c3C(=O)Nc3nc4ccccc4s3)CC2)c1", "note": "(stereo not shown) [Compound 297]", "EC50": "100 to 500"}
{"smiles": "COc1cccc(N2CCC(c3oc4cc(C(CC(=O)O)C5CC5)ccc4c3C(=O)Nc3nc(C(C)(C)C)cs3)CC2)c1", "note": "(stereo not shown) [Compound 298]", "EC50": "100 to 500"}
{"smiles": "COc1cccc(N2CCC(c3oc4cc(C(CC(=O)O)C5CC5)ccc4c3C(=O)Nc3ncc(C(C)(C)C)s3)CC2)c1", "note": "(stereo not shown) [Compound 299]", "EC50": "100 to 500"}
{"smiles": "COc1cccc(N2CCC(c3oc4cc(C(CC(=O)O)C5CC5)ccc4c3C(=O)Nc3cc(C(C)(C)C)on3)CC2)c1", "note": "(stereo not shown) [Compound 300]", "EC50": "100 to 500"}
{"smiles": "COc1cccc(N2CCC(c3oc4cc(C(CC(=O)O)C5CC5)ccc4c3C(=O)Nc3cc(C(C)(C)C)no3)CC2)c1", "note": "(stereo not shown) [Compound 301]", "EC50": "100 to 500"}
{"smiles": "COc1cccc(N2CCC(c3oc4cc(C(CC(=O)O)C5CC5)ccc4c3C(=O)Nc3cc(-c4ccccc4)nn3C)CC2)c1", "note": "(stereo not shown) [Compound 302]", "EC50": "100 to 500"}
{"smiles": "COc1cccc(N2CCC(c3oc4cc(C(CC(=O)O)C5CC5)ccc4c3C(=O)Nc3nccn3C)CC2)c1", "note": "(stereo not shown) [Compound 304]", "EC50": "100 to 500"}
{"molecular_target": "T1, human FFAR1 (GPR40)", "assay": "NFAT-RE-based reporter gene activity assay (Dual-Glo luciferase) for GPR40 agonistic activity in co-transfected HEK293T cells", "type": "cell-based", "settings": "4-hour treatment, class symbols", "outline": "as §1"}
{"smiles": "COc1cccc(N2CCC(c3oc4cc([C@@H](CC(=O)O)C5CC5)ccc4c3C(=O)Nc3cc(C(F)(F)F)ccc3Cl)CC2)c1", "note": "[Compound 275]", "Efficacy (%)": "††† (Efficacy (%) > 150)"}
{"smiles": "COc1cccc(N2CCC(c3oc4cc([C@@H](CC(=O)O)C5CC5)ccc4c3C(=O)Nc3cc([N+](=O)[O-])ccc3Cl)CC2)c1", "note": "[Compound 276]", "Efficacy (%)": "†† (150 ≥ Efficacy (%) > 100)"}
{"smiles": "COc1cccc(N2CCC(c3oc4cc([C@@H](CC(=O)O)C5CC5)ccc4c3C(=O)Nc3cc(OC(F)(F)F)ccc3Cl)CC2)c1", "note": "[Compound 277]", "Efficacy (%)": "††††"}
{"smiles": "CCc1ccc(Cl)c(NC(=O)c2c(C3CCN(c4cccc(OC)c4)CC3)oc3cc([C@@H](CC(=O)O)C4CC4)ccc23)c1", "note": "[Compound 278]", "Efficacy (%)": "††††"}
{"smiles": "COc1cccc(N2CCC(c3oc4cc([C@@H](CC(=O)O)C5CC5)ccc4c3C(=O)Nc3cc(C4CC4)ccc3Cl)CC2)c1", "note": "[Compound 279]", "Efficacy (%)": "†† (150 ≥ Efficacy (%) > 100)"}
{"smiles": "COc1cccc(N2CCC(c3oc4cc([C@@H](CC(=O)O)C5CC5)ccc4c3C(=O)Nc3cc(-c4ccccc4)ccc3Cl)CC2)c1", "note": "[Compound 280]", "Efficacy (%)": "†† (150 ≥ Efficacy (%) > 100)"}
{"smiles": "COc1cccc(N2CCC(c3oc4cc([C@@H](CC(=O)O)C5CC5)ccc4c3C(=O)N(C)c3cc(C(F)(F)F)ccc3Cl)CC2)c1", "note": "[Compound 281]", "Efficacy (%)": "†† (150 ≥ Efficacy (%) > 100)"}
{"smiles": "COc1cccc(N2CCC(c3oc4cc([C@@H](CC(=O)O)C5CC5)ccc4c3C(=O)Nc3cc(C#N)ccc3Cl)CC2)c1", "note": "[Compound 282]", "Efficacy (%)": "†† (150 ≥ Efficacy (%) > 100)"}
{"smiles": "COc1cccc(N2CCC(c3oc4cc([C@@H](CC(=O)O)C5CC5)ccc4c3C(=O)Nc3cc(C(C)=O)ccc3Cl)CC2)c1", "note": "[Compound 283]", "Efficacy (%)": "††† (Efficacy (%) > 150)"}
{"smiles": "COc1cccc(N2CCC(c3oc4cc([C@@H](CC(=O)O)C5CC5)ccc4c3C(=O)Nc3cc(N4CCCCC4)ccc3Cl)CC2)c1", "note": "[Compound 284]", "Efficacy (%)": "†† (150 ≥ Efficacy (%) > 100)"}
{"smiles": "COc1cccc(N2CCC(c3oc4cc([C@@H](CC(=O)O)C5CC5)ccc4c3C(=O)Nc3cc(N4CCOCC4)ccc3Cl)CC2)c1", "note": "[Compound 285]", "Efficacy (%)": "†† (150 ≥ Efficacy (%) > 100)"}
{"smiles": "COc1cccc(N2CCC(c3oc4cc([C@@H](CC(=O)O)C5CC5)ccc4c3C(=O)Nc3cc(NC(C)=O)ccc3Cl)CC2)c1", "note": "[Compound 286]", "Efficacy (%)": "†† (150 ≥ Efficacy (%) > 100)"}
{"smiles": "COc1cccc(N2CCC(c3oc4cc(C(CC(=O)O)C5CC5)ccc4c3C(=O)Nc3c(F)cc(F)cc3F)CC2)c1", "note": "(stereo not shown) [Compound 288]", "Efficacy (%)": "†† (150 ≥ Efficacy (%) > 100)"}
{"smiles": "COc1cccc(N2CCC(c3oc4cc(C(CC(=O)O)C5CC5)ccc4c3C(=O)Nc3nccs3)CC2)c1", "note": "(stereo not shown) [Compound 290]", "Efficacy (%)": "†† (150 ≥ Efficacy (%) > 100)"}
{"smiles": "COc1cccc(N2CCC(c3oc4cc(C(CC(=O)O)C5CC5)ccc4c3C(=O)Nc3ncns3)CC2)c1", "note": "(stereo not shown) [Compound 293]", "Efficacy (%)": "†† (150 ≥ Efficacy (%) > 100)"}
{"smiles": "COc1cccc(N2CCC(c3oc4cc(C(CC(=O)O)C5CC5)ccc4c3C(=O)Nc3noc4ccccc34)CC2)c1", "note": "(stereo not shown) [Compound 296]", "Efficacy (%)": "††† (Efficacy (%) > 150)"}
{"smiles": "COc1cccc(N2CCC(c3oc4cc(C(CC(=O)O)C5CC5)ccc4c3C(=O)Nc3nc4ccccc4s3)CC2)c1", "note": "(stereo not shown) [Compound 297]", "Efficacy (%)": "†† (150 ≥ Efficacy (%) > 100)"}
{"smiles": "COc1cccc(N2CCC(c3oc4cc(C(CC(=O)O)C5CC5)ccc4c3C(=O)Nc3nc(C(C)(C)C)cs3)CC2)c1", "note": "(stereo not shown) [Compound 298]", "Efficacy (%)": "†† (150 ≥ Efficacy (%) > 100)"}
{"smiles": "COc1cccc(N2CCC(c3oc4cc(C(CC(=O)O)C5CC5)ccc4c3C(=O)Nc3ncc(C(C)(C)C)s3)CC2)c1", "note": "(stereo not shown) [Compound 299]", "Efficacy (%)": "†† (150 ≥ Efficacy (%) > 100)"}
{"smiles": "COc1cccc(N2CCC(c3oc4cc(C(CC(=O)O)C5CC5)ccc4c3C(=O)Nc3cc(C(C)(C)C)on3)CC2)c1", "note": "(stereo not shown) [Compound 300]", "Efficacy (%)": "†† (150 ≥ Efficacy (%) > 100)"}
{"smiles": "COc1cccc(N2CCC(c3oc4cc(C(CC(=O)O)C5CC5)ccc4c3C(=O)Nc3cc(C(C)(C)C)no3)CC2)c1", "note": "(stereo not shown) [Compound 301]", "Efficacy (%)": "†† (150 ≥ Efficacy (%) > 100)"}
{"smiles": "COc1cccc(N2CCC(c3oc4cc(C(CC(=O)O)C5CC5)ccc4c3C(=O)Nc3cc(-c4ccccc4)nn3C)CC2)c1", "note": "(stereo not shown) [Compound 302]", "Efficacy (%)": "† (100 ≥ Efficacy (%) > 50)"}
{"smiles": "COc1cccc(N2CCC(c3oc4cc(C(CC(=O)O)C5CC5)ccc4c3C(=O)Nc3nccn3C)CC2)c1", "note": "(stereo not shown) [Compound 304]", "Efficacy (%)": "††† (Efficacy (%) > 150)"}
